Source: patent US5731345A, “Seco-D steroids active on the cardiovascular system and pharmaceutical compositions containing same” (Sigma-Tau Industrie Farmaceutiche Riunite S.p.A, priority 1995, dated 1998)
Like-named read-outs stand apart in the source and are kept apart here.

Key:
Na^+, K^+ -ATPase [1] = format: biochemical; settings: purified Na^+, hydrolysis of ^32 P-ATP
Text: (§1) To test the affinity for the receptor site of the Na^+, K^+ -ATPase and the agonist or inhibitory activity on the enzyme, the following tests were used:
b) inhibition of the activity of the purified Na^+, K^+ -ATPase measured as % of hydrolysis of ^32 P-ATP in the presence and in the absence of the tested compound (Doucet A. et al., Am. J. Physiol., 1986, 251, F851).

Na^+, K^+ -ATPase [2] = biological target: T1, Na^+, K^+ -ATPase (Canis lupus familiaris, UniProt P50997); assay: displacement of specific ^3 H-oubain binding from purified Na^+, K^+ -ATPase receptor
T1 construct: from tissue
Text: as §1
a) displacement of the specific ^3 H-oubain binding from the Na^+, K^+ -ATPase receptor purified according to Jorghensen (Jorghensen P., BBA, 1974, 356, 36) and Erdamnn (Erdmann E. et al., Arzneim. Forsh, 1984, 34, 1314);

[3] = tested on: spontaneous hypertensive rats (MHS); assay: prevention of development of hypertension in pre-hypertensive rats, indirect tail-cuff plethysmography (SBP and HR); format: in vivo, rat; settings: 5 week treatment, 20 mg/kg/os daily in 0.5% w/v Methocel; for SBP: controls 172+/-5.0; for HR: controls 380+/-6.3
Experimental: Systolic blood pressure (SBP) and heart rate (HR) were measured by an indirect tail-cuff plethysmographic method in […] pre-hypertensive male rats, (MHS or SHR), i.e. before hypertension onset so as to register the basal value of SBP. The rats were then subdivided in groups of 7 animals each and the groups were divided in control and treated group. The compound, suspended in 0.5% (w/v) Methocel, was orally administered daily for at least five weeks. The control group received only Methocel.
SBP and HR were measured weekly, 6 and 24 hours after the treatment.
After five weeks of treatment, when the hypertension was fully developed in the control group ([…]) a one-week wash-out was conducted in order to verify whether SBP would remain low or restored to the basal values of the control group.

SMILES | Inhibitory activity -log IC50 (Na^+, K^+ -ATPase [1]) | IC50 (Na^+, K^+ -ATPase [2]) [nM] | IC50 (Na^+, K^+ -ATPase [2]; purified Na^+, K^+ -ATPase receptor, read-out: Binding ^3 H-oubain displacement -log IC50 (converted)) [nM] | SBP [3] | HR [3]
CN(C)CCO/N=C\C[C@H](C1=CC(=O)OC1)[C@@]1(C)CC[C@H]2[C@@H](CC[C@@H]3C[C@@H](O)CC[C@@]32C)C1=O [Comp. I-l, 3β-hydroxy-14-oxo-14,15-seco-5β-card-20(22)-enolide-15(2-dimethylaminoethoxy-(Z)-imino)] | 4.2 | 3980 |  |  | 
CC[C@H](c1ccoc1)[C@@]1(C)CC[C@H]2[C@@H](CC[C@@H]3C[C@@H](O)CC[C@@]32C)C1=O [Comp. I-c, 17β-(3-furyl)-14-oxo-14,15-seco-5β-androstan-3β-ol] | 4.3 |  | 6310 |  | 
CC[C@H](c1ccoc1)[C@@]1(C)CC[C@H]2[C@@H](CC[C@@H]3C[C@@H](O)CC[C@@]32C)[C@@H]1O [Comp. I-a, 17β-(3-furyl)-14,15-seco-5βandrostan-3β,14β-diol] |  |  |  | 155+/-4.3 mm Hg | 370+/-10.5 beats/min.
C[C@]12CC[C@H](O)C[C@H]1CC[C@H]1[C@H](O)[C@@](C)([C@H](CC#N)C3=CC(=O)OC3)CC[C@@H]12 [Comp. I-h, 3β,14β-dihydroxy-14,15-seco-5β-card-20(22)-enolide-15-nitrile] |  |  |  | 160+/-7.8 mm Hg | 377+/-10.5 beats/min.
CC[C@H](C1=CC(=O)OC1)[C@@]1(C)CC[C@H]2[C@@H](CC[C@@H]3C[C@@H](O)CC[C@@]32C)C1=O [Comp. I-d, 3β-hydroxy-14-oxo-14,15-seco-5β-card-20(22)-enolide] | 5.6 | 200 |  | 156+/-4.6 mm Hg | 383+/-11.4 beats/min.
CN(C)CCO/N=C/C[C@H](C1=CC(=O)OC1)[C@@]1(C)CC[C@H]2[C@@H](CC[C@@H]3C[C@@H](O)CC[C@@]32C)C1=O [Comp. I-i, 3β-hydroxy-14-oxo-14,15-seco-5β-card-20(22)-enolide-15-(2-dimethylaminoethoxy-(E)-imino)] | 4.0 | 2510 |  |  | 
C[C@]12CC[C@H](O)C[C@H]1CC[C@H]1C(=O)[C@@](C)([C@H](C/C=N/NC(=N)N)C3=CC(=O)OC3)CC[C@@H]12 [Comp. I-m, 3β-hydroxy-14-oxo-14,15-seco-5β-card-20(22)enolide-15-(E)-(guanidinoimino)] | 4.1 | 3160 |  |  | 
CC[C@H](C1=CC(=O)OC1)[C@@]1(C)CC[C@H]2[C@@H](CC[C@@H]3C[C@@H](O)CC[C@@]32C)[C@@H]1O [Comp. I-e, 3β,14β-dihydroxy-14,15-seco-5β-card-20(22)-enolide] | 5.1 | 126 |  |  | 
